In paper PMC6704710, “Preclinical evaluation of 3D185, a novel potent inhibitor of FGFR1/2/3 and CSF-1R, in FGFR-dependent and macrophage-dominant cancer models” (Journal of Experimental & Clinical Cancer Research : CR, 2019):
pIC50: −log10 of the molar value.

Assays:
Assay in all cases: Eurofins kinase panel
Assay type in all cases: biochemical
DRAK2(h) = target: T1, DRAK2(h) (Homo sapiens, UniProt O94768); details: read-out: Inhibition rate (%)
T1 construct: purchased Eurofins (KinaseProfiler)
T1 sequence (O94768 1-372): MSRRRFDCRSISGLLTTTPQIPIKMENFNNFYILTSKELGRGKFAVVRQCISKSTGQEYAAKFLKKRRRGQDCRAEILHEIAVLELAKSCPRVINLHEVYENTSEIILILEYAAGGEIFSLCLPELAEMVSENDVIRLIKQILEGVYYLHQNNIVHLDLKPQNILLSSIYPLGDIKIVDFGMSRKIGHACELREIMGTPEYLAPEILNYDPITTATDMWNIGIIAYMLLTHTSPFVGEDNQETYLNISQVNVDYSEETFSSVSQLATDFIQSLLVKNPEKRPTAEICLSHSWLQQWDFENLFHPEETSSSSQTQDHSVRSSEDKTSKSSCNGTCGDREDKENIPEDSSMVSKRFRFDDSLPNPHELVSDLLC

EGFR(T790M,L858R)(h) = target: T2, EGFR(T790M,L858R)(h) (Homo sapiens, UniProt P00533, L858R/T790M); details: read-out: Inhibition rate (%)
T2 construct: purchased Eurofins (KinaseProfiler)
T2 sequence (P00533 25-1210 T790M/L858R): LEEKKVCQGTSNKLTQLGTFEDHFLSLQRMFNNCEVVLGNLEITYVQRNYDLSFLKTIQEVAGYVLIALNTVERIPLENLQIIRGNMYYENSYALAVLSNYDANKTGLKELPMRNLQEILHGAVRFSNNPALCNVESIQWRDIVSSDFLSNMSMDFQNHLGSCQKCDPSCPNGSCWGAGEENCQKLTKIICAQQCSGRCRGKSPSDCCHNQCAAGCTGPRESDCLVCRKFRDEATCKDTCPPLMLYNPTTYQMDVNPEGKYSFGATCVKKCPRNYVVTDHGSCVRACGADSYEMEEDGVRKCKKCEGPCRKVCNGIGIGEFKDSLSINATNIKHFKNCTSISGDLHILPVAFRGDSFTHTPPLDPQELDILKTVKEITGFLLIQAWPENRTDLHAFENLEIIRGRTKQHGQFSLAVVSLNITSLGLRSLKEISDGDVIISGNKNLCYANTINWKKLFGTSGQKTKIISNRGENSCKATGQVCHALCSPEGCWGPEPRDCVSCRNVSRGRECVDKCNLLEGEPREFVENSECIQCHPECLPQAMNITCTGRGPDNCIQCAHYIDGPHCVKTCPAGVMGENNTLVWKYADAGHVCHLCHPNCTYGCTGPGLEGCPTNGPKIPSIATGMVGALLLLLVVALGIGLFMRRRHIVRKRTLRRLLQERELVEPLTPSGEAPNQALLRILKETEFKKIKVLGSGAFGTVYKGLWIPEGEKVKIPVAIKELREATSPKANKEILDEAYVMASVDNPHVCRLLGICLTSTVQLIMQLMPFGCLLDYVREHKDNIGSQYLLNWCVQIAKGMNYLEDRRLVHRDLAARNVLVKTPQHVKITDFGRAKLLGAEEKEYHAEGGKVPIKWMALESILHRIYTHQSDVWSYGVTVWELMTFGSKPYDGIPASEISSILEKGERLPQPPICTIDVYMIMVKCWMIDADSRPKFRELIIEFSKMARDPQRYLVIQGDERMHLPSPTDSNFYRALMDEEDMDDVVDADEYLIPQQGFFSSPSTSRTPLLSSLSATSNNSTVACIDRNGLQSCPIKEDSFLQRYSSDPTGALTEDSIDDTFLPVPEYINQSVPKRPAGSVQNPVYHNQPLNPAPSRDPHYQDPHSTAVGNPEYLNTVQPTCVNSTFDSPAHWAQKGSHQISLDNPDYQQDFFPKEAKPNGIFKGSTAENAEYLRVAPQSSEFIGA

EphB2(h) = target: T3, EphB2(h) (Homo sapiens, UniProt P29323); details: read-out: Inhibition rate (%)
T3 construct: purchased Eurofins (KinaseProfiler)
T3 sequence (P29323 19-1055): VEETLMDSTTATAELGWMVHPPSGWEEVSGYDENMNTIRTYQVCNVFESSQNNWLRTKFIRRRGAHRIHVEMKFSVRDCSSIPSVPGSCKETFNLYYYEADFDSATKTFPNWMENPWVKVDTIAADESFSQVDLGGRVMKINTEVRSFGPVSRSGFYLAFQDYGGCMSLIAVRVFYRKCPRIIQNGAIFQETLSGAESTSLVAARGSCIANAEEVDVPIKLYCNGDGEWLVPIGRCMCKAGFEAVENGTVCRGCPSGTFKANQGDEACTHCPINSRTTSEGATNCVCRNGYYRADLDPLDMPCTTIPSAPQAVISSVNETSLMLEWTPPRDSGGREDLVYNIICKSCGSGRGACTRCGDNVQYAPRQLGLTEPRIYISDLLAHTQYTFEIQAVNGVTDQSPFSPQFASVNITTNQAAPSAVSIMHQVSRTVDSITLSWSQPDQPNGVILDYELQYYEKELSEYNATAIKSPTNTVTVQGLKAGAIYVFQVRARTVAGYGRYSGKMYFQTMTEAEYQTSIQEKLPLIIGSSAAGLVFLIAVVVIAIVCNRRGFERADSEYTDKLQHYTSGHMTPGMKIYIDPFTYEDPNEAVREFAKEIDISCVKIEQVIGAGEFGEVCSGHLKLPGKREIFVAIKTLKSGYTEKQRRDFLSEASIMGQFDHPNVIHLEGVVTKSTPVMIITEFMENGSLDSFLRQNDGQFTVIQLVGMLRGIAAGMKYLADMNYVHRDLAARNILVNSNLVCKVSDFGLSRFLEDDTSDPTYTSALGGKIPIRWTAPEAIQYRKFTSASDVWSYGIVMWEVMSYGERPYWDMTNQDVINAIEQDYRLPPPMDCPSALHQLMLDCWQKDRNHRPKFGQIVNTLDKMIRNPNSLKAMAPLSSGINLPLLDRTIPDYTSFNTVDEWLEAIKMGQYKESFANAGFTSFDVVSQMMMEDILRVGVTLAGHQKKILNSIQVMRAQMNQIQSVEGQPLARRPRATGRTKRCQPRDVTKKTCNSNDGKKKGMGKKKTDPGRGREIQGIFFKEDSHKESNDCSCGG

FGFR1(h) = FGFR1(h) (Homo sapiens, UniProt P11362)
FGFR1(h), sequence (P11362 22-822): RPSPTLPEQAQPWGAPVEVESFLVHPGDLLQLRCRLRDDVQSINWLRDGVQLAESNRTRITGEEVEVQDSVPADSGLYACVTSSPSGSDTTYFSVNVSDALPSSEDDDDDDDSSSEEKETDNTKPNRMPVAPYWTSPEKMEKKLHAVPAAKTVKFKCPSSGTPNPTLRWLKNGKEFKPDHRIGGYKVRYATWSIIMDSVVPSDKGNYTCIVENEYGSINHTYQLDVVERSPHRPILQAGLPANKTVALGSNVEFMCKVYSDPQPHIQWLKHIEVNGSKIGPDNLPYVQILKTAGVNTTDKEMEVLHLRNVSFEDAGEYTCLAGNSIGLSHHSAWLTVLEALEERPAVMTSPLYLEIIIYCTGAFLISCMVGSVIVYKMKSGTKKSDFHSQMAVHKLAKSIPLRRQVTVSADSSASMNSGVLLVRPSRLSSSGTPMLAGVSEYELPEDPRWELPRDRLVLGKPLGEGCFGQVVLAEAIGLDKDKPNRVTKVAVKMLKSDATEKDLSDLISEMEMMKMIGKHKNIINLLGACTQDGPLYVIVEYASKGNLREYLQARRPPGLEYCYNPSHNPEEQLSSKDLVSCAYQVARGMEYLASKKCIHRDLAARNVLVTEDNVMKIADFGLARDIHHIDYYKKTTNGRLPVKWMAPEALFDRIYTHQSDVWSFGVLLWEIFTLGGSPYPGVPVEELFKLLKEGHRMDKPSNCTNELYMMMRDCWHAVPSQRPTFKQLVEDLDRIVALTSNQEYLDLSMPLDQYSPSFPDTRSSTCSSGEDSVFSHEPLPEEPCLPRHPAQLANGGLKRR

GRK3(h) = target: T4, GRK3(h) (Homo sapiens, UniProt P35626); details: read-out: Inhibition rate (%)
T4 construct: purchased Eurofins (KinaseProfiler)
T4 sequence (P35626 1-688): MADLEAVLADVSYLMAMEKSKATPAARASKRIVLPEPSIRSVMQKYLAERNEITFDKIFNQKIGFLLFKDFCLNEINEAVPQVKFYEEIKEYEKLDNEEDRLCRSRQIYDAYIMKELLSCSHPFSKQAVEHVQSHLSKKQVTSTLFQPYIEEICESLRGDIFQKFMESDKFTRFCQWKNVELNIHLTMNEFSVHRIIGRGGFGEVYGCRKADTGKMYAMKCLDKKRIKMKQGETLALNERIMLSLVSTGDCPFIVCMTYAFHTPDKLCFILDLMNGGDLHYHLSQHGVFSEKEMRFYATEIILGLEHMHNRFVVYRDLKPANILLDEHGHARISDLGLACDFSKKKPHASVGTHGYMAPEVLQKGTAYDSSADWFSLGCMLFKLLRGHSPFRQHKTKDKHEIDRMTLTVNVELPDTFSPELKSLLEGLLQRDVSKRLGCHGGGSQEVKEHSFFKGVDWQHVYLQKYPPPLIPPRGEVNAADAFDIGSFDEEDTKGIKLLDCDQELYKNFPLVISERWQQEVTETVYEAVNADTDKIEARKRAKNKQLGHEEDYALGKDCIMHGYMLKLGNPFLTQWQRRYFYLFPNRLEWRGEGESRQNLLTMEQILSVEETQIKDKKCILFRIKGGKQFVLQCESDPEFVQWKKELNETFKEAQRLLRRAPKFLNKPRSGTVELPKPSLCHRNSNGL

COc1cc(OC)c(Cl)c(-c2ccc3c(NC(=O)c4ccc(N5CCNC(C)(C)C5)cc4)n[nH]c3n2)c1Cl [3D185]
inhibition at 0.01 µM (DRAK2(h); 10 nM): -5% | inhibition at 0.1 µM (DRAK2(h); 100 nM): -13% | inhibition at 1 µM (DRAK2(h); 1000 nM): 3% | inhibition at 0.01 µM (EGFR(T790M,L858R)(h); 10 nM): 6% | inhibition at 0.1 µM (EGFR(T790M,L858R)(h); 100 nM): 38% | inhibition at 1 µM (EGFR(T790M,L858R)(h); 1000 nM): 79% | inhibition at 0.01 µM (EphB2(h); 10 nM): 12% | inhibition at 0.1 µM (EphB2(h); 100 nM): 6% | inhibition at 1 µM (EphB2(h); 1000 nM): 15% | pIC50 (FGFR1(h); estimated from 372-kinase panel): > 8.00 | inhibition at 0.01 µM (FGFR1(h); read-out: Inhibition rate (%)): 99% | inhibition at 0.1 µM (FGFR1(h); read-out: Inhibition rate (%)): 98% | inhibition at 1 µM (FGFR1(h); read-out: Inhibition rate (%)): 100% | inhibition at 0.01 µM (GRK3(h); 10 nM): 6% | inhibition at 0.1 µM (GRK3(h); 100 nM): 3% | inhibition at 1 µM (GRK3(h); 1000 nM): 3%
